The source of these data is US20260216226A1, “TRIPLE COMBINED THERAPY INHIBITING EGFR, RAF1 AND STAT3 AGAINST PANCREATIC DUCTAL ADENOCARCINOMA” (FUNDACION DEL SECTOR PUBLICO ESTATAL CENTRO NACIONAL DE …, priority 2023, published 2026).

Data set [1] deals with STAT3. As to conditions: Kras mutant pancreatic and colon cancer cells; cited from earlier work.
Data set [2] deals with T1, STAT3 (Mus musculus, UniProt P42227).
T1 construct: Western blot analysis of the expression of STAT3 of cell-lysate extracts; endogenous in cells; host or cells: Egfr lox/lox; Raf1 lox/lox PDAC (NR) tumor cells infected with Adeno-GFP or Adeno-CRE
T1 sequence (P42227 whole entry): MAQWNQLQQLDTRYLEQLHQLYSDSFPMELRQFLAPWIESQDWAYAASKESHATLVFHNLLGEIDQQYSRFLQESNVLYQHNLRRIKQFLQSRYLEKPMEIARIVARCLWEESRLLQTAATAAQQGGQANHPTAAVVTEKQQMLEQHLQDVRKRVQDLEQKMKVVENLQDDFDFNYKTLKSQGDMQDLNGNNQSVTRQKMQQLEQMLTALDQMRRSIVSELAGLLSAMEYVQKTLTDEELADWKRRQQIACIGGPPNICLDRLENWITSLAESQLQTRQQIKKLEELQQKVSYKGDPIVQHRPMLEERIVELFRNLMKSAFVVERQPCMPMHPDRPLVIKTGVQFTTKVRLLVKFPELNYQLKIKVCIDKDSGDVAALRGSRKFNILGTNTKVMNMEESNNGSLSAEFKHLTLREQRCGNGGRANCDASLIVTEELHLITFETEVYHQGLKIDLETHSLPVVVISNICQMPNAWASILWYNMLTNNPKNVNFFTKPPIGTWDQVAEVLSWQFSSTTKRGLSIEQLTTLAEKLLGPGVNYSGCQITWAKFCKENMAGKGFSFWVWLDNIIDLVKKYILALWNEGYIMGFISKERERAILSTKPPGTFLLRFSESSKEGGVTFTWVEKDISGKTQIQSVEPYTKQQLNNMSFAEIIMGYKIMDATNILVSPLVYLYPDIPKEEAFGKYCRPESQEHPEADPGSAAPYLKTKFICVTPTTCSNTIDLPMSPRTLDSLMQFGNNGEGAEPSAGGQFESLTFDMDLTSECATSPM
Briefly: Western blot analysis of STAT3 expression in cell-lysate extracts. The following applies: NR PDAC cells treated with SD-36; GAPDH loading control. Format: cell-based. As to the method: (§1) FIG. 2. A. Colony formation assay of Egfr^lox/lox; Raf1^lox/lox PDAC cells infected with Adeno-GFP and Adeno-CRE viral particles in combination with treatment with 1 μM SD-36. 5000 cells were seeded for 10 days and culture medium was changed every day. B. Western blot analysis of the expression of STAT3 of cell-lysate extracts. GAPDH was used as loading control.
The expression of STAT3 was targeted by shRNAs after genetic deletion of Egfr and Raf1 in NR cells by Adeno-GFP and Adeno-GFP-CRE infection. […] NR tumor cells, previously infected with Adeno-GFP and Adeno-GFP-CRE virus to eliminate the EGFR and the Raf1 (floxed targets), were treated with SD-36 for 10 days in a colony formation assay. Elimination of the targets was very efficient.
In general terms: A western blot detects proteins with antibodies after separation by electrophoresis.

The subject of data set [3] is Egfr^lox/lox; Raf1^lox/lox PDAC cells. Kind of data set: Colony formation assay of NR PDAC cells infected with Adeno-GFP or Adeno-CRE. It counts as cell-based. The following applies: 1 μM SD-36, 10 days. As to the method:
FIG. 1. Colony formation assay of Egfr^lox/lox; Raf1^lox/lox PDAC cells infected with Adeno-GFP and Adeno-CRE viral particles in combination with small-hairpin RNA (shRNA) against STAT3 and Scr (empty vector) as control. 5000 cells were seeded for 10 days. B. Western blot analysis of the expression of EGFR, RAF1 and STAT3 of cell-lysate extracts. GAPDH was used as loading control.
as §1
(§2) Silencing of Egfr, Raf1 and Stat3 was mediated with the lentiviral short hairpin RNA (shRNA) plasmids TRCN0000055218, TRCN0000012628 and TRCN0000071453 respectively. The non-target shRNA vector was used as control. The pharmacological treatments were conducted with the following agents: Afatinib (20 mg/kg, daily), SD-36 (50 mg/kg, daily).
The expression of STAT3 was targeted by shRNAs after genetic deletion of Egfr and Raf1 in NR cells by Adeno-GFP and Adeno-GFP-CRE infection. […]

In data set [4] the test system is NR PDACs (tumors of big sizes). Kind of data set: Tumor growth monitored by ultrasound in genetically engineered mice. The following applies: NR triple: SD-36 50 mg/kg daily added to tamoxifen and Afatinib 20 mg/kg daily. It counts as in vivo, mouse. Here is the method:
as §2
It was also included in the combined treatment Afatinib (a tyrosine receptor kinase inhibitor against EGFR) and SD-36 (PROTAC degrader against STAT3).

Data set [5] deals with pancreatic ductal adenocarcinoma (PDAC). The following applies: adjuvant treatment, patients with resectable disease; cited from earlier work.

With `Cn1cnc2c(F)c(Nc3ccc(Br)cc3Cl)c(C(=O)NOCCO)cc21` [AZD6244], the STAT3 activation entry in the data set on STAT3 [1] is “significantly activated”. As for `COc1cccc(-c2cc(=O)c3ccccc3o2)c1N` [PD98059], in the data set on STAT3 [1], the STAT3 activation entry was “significantly activated”. For `NC(=O)CC[C@H](NC(=O)[C@@H]1CC[C@@H]2CCN(C(=O)CCCCCC#Cc3cccc4c3CN(C3CCC(=O)NC3=O)C4=O)C[C@H](NC(=O)c3cc4cc(C(F)(F)P(=O)(O)O)ccc4[nH]3)C(=O)N21)C(=O)NC(c1ccccc1)c1ccccc1` (stereo partly shown) [SD-36], on STAT3 [2], the STAT3 degradation result was “effectively degraded STAT3”. Besides, the “growth of NR cells that express Egfr and Raf1 (toxicity)” value in data set [3] (Adeno-GFP infected NR cells, versus vehicle control) is “grew similarly as the vehicle control”. For the same molecule, the “colony formation / cell death of NR tumor cells” value in data set [3] (NR cells after deletion of Egfr and Raf1 (Adeno-CRE)) is recorded as “cell death of NR tumor cells”. For the same molecule, in data set [4], the tumor growth entry was “significant delay and slight reduction of tumor growth”. FOLFIRINOX: the “median overall survival (OS)” value in data set [5] was 54 months.
